Experimental data reported in PMC11166458, “Caskin2 is a novel talin- and Abi1-binding protein that promotes cell motility” (Journal of Cell Science, 2024).

Experiments:
[1] = test system: pCaskin2 (S878); test: Caskin2 S878 phosphorylation (GFP-Trap, western blot) in GE11tetONβ1 cells; format: cell-based; conditions: for EGF-induced phosphorylation of Caskin2 at serine 878 with inhibitor: inhibitor 100 nM, 1 h pretreatment, EGF 100 ng/ml for 15 min; for Caskin2 phosphorylation on S878 after growth factor: EGF 100 ng/ml or PDGF 50 ng/ml, serum-starved 16 h
Description: To explore the role of Caskin2-S878 further in regulating the Abi1 interaction, we developed a phospho-specific antibody targeting this serine. Unfortunately, high non-specific binding of the phospho-Caskin2 antibody protein sample prevented its consistent use in detecting phosphorylated Caskin2 in western blot analysis of whole-cell lysates. […] Abi1 functions downstream of growth factor receptor signaling to control Rac1-dependent actin rearrangements. Therefore, we hypothesized that Caskin2-S878 phosphorylation might occur downstream of growth factor receptor stimulation. To explore this, we conducted co-IP experiments using GE11^tetONβ1 cells stably expressing Caskin2-FL–GFP stimulated with either EGF or PDGF. […] To gain insight into the kinases involved in the EGF-induced phosphorylation of Caskin2 at serine 878, we pretreated the cells with mTOR (AZD8055) and MEK1/2 (Trametinib) inhibitors for 1 h before stimulation.
(§1) For analysis of protein in whole-cell lysates, cells were washed three times with cold PBS, lysed in Nonidet P-40 lysis buffer [20 mM Tris-HCl pH 7.5, 100 mM NaCl, 1% NP-40), supplemented with Na3VO4 (1.5 mM), NaF (15 mM), protease inhibitor cocktail (1:1000; Sigma-Aldrich) and phosphatase inhibitor cocktail 3 (1:100; Sigma-Aldrich)] and cleared by centrifugation at 14,000 g for 1 h at 4°C. After addition of an equal volume of 4× sample buffer (200 mM Tris-HCl pH 6.8, 10% SDS, 40% glycerol 0,1% Bromophenol Blue and 2% mercaptoethanol) and heating the samples at 95°C for 5 min, the samples were loaded on Novex NuPAGE 4–12% gradient Bis-Tris gels (Invitrogen) and transferred onto Immobilon® PVDF membranes. Membranes were blocked for at least 2 h in 2% BSA in TBST (10 mM Tris-HCl pH 7.5, 150 mM NaCl with 0.05% Tween 20] before incubation with primary antibody overnight at 4°C and with secondary antibody for 1 h at room temperature. After each incubation step, the membranes were washed twice with TBST and twice with TBS (TBST without Tween 20). Finally, proteins were visualized using Clarity™ Western ECL Substrate (Bio-Rad Laboratories), as described previously ([Wang et al., 2020b]).
(§2) GFP-Trap pulldown experiments were performed as follows. Cleared lysates containing equal amounts of proteins, as determined by a Pierce™ BCA Protein Assay, were incubated with GFP-Trap agarose beads (Chromotek) in a rotation wheel for 6 h at 4°C. Beads were washed three times with Nonidet P-40 lysis buffer and two times with cold PBS. Bound proteins and input samples (whole-cell lysates, 1%) were then loaded on gel and transferred to Immobilon-P transfer membranes, after which the blotted proteins were probed with antibodies, as described above.
For EGF- and PDGF-BB-induced stimulation of Caskin2 phosphorylation, cells were serum starved for 16 h in DMEM without FCS. […]

[2] = test system: Caskin2–Abi1; test: Caskin2–Abi1 binding after growth factor stimulation (GFP-Trap, western blot) in GE11tetONβ1 cells; format: cell-based; conditions: for EGF-stimulated loss of Abi1 binding with inhibitor: inhibitor 100 nM, 1 h pretreatment, EGF 100 ng/ml for 15 min; for Caskin2–Abi1 binding after growth factor: EGF 100 ng/ml or PDGF 50 ng/ml, serum-starved 16 h
Procedure: (§3) For analysis of protein in whole-cell lysates, cells were washed three times with cold PBS, lysed in Nonidet P-40 lysis buffer [20 mM Tris-HCl pH 7.5, 100 mM NaCl, 1% NP-40), supplemented with Na3VO4 (1.5 mM), NaF (15 mM), protease inhibitor cocktail (1:1000; Sigma-Aldrich) and phosphatase inhibitor cocktail 3 (1:100; Sigma-Aldrich)] and cleared by centrifugation at 14,000 g for 1 h at 4°C.
as §2
For EGF- and PDGF-BB-induced stimulation of Caskin2 phosphorylation, cells were serum starved for 16 h in DMEM without FCS. The serum-starved cells were then treated with 100 ng/ml EGF (Sigma-Aldrich) or 50 ng/ml PDGF-BB (Sigma-Aldrich) at 37°C for the indicated times. Serum-starved cells treated with EGF and the signal transduction inhibitors AZD8055 (mTOR inhibitor, Selleckchem) and Tramatinib (MEK1/2 inhibitor, Selleckchem) were first pre-treated with the inhibitor for 60 min before they were treated with the growth factor for 15 min.

[3] = test system: endogenous talin; test: GFP-Trap pulldown of talin by Caskin2-GFP constructs in COS-7 cells; format: binding; conditions: western blot, n=3
Procedure: (§4) For transient expression, COS-7 cells were grown to 70% confluence in 10 cm culture dishes and transfected with plasmid DNAs using the DEAE–dextran method ([Schaapveld et al., 1998]). Briefly, 4.5 µg of plasmid DNA was mixed with 500 µg/ml DEAE–dextran in 2.5 ml PBS. Cells were washed two times with PBS and then incubated for 30 min at 37°C with the DEAE–dextran solution. Subsequently, 80 µM chloroquine was added to the cells in 10 ml DMEM with FCS and cells were incubated at 37°C for 3 h. After aspiration of the medium, the cells were treated with 3 ml of DMEM with FCS containing 10% DMSO for 2.5 min. The DMSO solution was then removed and replaced with fresh medium, after which the cells were further incubated for 48–72 h before analysis.
(§5) For analysis of protein in whole-cell lysates, cells were washed three times with cold PBS, lysed in Nonidet P-40 lysis buffer [20 mM Tris-HCl pH 7.5, 100 mM NaCl, 1% NP-40), supplemented with Na3VO4 (1.5 mM), NaF (15 mM), protease inhibitor cocktail (1:1000; Sigma-Aldrich) and phosphatase inhibitor cocktail 3 (1:100; Sigma-Aldrich)] and cleared by centrifugation at 14,000 g for 1 h at 4°C. After addition of an equal volume of 4× sample buffer (200 mM Tris-HCl pH 6.8, 10% SDS, 40% glycerol 0,1% Bromophenol Blue and 2% mercaptoethanol) and heating the samples at 95°C for 5 min, the samples were loaded on Novex NuPAGE 4–12% gradient Bis-Tris gels (Invitrogen) and transferred onto Immobilon® PVDF membranes. […]
(§6) GFP-Trap pulldown experiments were performed as follows. Cleared lysates containing equal amounts of proteins, as determined by a Pierce™ BCA Protein Assay, were incubated with GFP-Trap agarose beads (Chromotek) in a rotation wheel for 6 h at 4°C. […]

[4] = test system: 14-3-3 proteins; test: GFP-Trap co-IP of 14-3-3 proteins in GE11tetONβ1 cells; format: binding
Procedure: as §5, §6

[5] = test system: talin; test: GFP-Trap pulldown of talin by Caskin2-GFP constructs in GE11tetON β1 cells; format: binding; conditions: western blot, with and without doxycycline
Procedure: as §5, §6

[6] = test system: endogenous Abi1, Wasf1, Cyfip2 and Nckap1; test: GFP-Trap co-IP of endogenous WRC components in GE11tetONβ1 cells; format: binding
Procedure: as §5, §6

[7] = test system: HA–Abi1; test: GFP-Trap co-IP of HA–Abi1 by Caskin2-GFP constructs in COS-7 cells; format: binding; conditions: for HA–Abi1 binding: GFP-Trap, western blot, three independent experiments
Procedure: as §4, §1, §2

[8] = test system: Abi1; test: Immunofluorescence colocalization of Caskin2-GFP constructs with Abi1 in GE11tetONβ1 cells; format: cell-based; conditions: cell periphery
Procedure: PA-JEB/β4 keratinocytes were seeded on glass coverslips and cultured for 24 h in complete KGM, and then continued to be cultured for a further 16 h in DMEM with 10% FCS. GE11^tetONβ1 and MCF7 cells were seeded on glass coverslips and cultured for 24 h in DMEM with 10% FCS. Cells were fixed in 2% paraformaldehyde and permeabilized with 0.2% Triton X-100 for 5 min, blocked with PBS containing 2% bovine serum albumin (BSA; Sigma-Aldrich) for 45 min and subsequently incubated with primary and secondary antibodies for 1 h. In between antibody steps, the coverslips were washed three times with PBS. Actin fibers were visualized by staining with Phalloidin–Alexa Fluor 647 (Cell Signaling Technology). Nuclei were stained with DAPI. Samples were mounted on glass slides in Mowiol after three washing steps with PBS. Images were acquired with a Leica TCS SP5 confocal microscope with a 63× (NA 1.4) oil objective. Software for image acquisition is Leica LAS AF 3.0.2 ([Wang et al., 2020b]).
Imaging analysis was performed using FIJI software ([Schindelin et al., 2012]). The levels of colocalization between Caskin2 and various other proteins, including integrin β4, FA proteins and CMSC components, was performed using Pearson's co-efficient analysis in the JACoP module of ImageJ ([Carisey et al., 2013]; [Wang et al., 2020b]).

[9] = test system: GE11tetONβ1 cells; test: Cell migration (time-lapse cell motility) of GE11tetONβ1 cells; format: cell-based; conditions: 20 h time-lapse, DMEM 1% FCS; two independent experiments
Procedure: Cell motility assays were conducted using time-lapse recordings of cells cultured on plastic 12-well plates in DMEM containing 1% FCS and 1% antibiotics. Phase-contrast images were acquired using a Zeiss AxioObserver Z.1 microscope equipped with a heated stage (37°C and 5% CO2), with a 10×/0.30 EC Plan-Neofluar Ph1 objective (Zeiss), captured with a Zeiss AxioCam MRm. Images were acquired every 10 min for 20 h. Cells were tracked manually using ImageJ; tracking data was analyzed using the Chemotaxis Tool plugin (Ibidi).

[10] = test system: Caskin2; test: GFP-Trap co-IP of Caskin2 by GFP-tagged talin constructs in COS-7 cells; format: binding, Human; conditions: western blot
Procedure: as §4
as §3, with “4°C. […]” for “4°C.”
as §6

Compound: COc1ccc(-c2ccc3c(N4CCOC[C@@H]4C)nc(N4CCOC[C@@H]4C)nc3n2)cc1CO [AZD8055, reference compound]
- EGF-induced phosphorylation of Caskin2 at serine 878 with inhibitor [1]: reduced phosphorylation of Caskin2
- EGF-stimulated loss of Abi1 binding with inhibitor [2]: only Trametinib, either alone or in combination with AZD8055 inhibited the EGF-stimulated loss of Abi1 binding

Compound: CC(=O)Nc1cccc(-n2c(=O)n(C3CC3)c(=O)c3c(Nc4ccc(I)cc4F)n(C)c(=O)c(C)c32)c1 [Trametinib, reference compound]
- EGF-induced phosphorylation of Caskin2 at serine 878 with inhibitor [1]: reduced phosphorylation of Caskin2
- EGF-stimulated loss of Abi1 binding with inhibitor [2]: inhibited the EGF-stimulated loss of Abi1 binding

Compound: Caskin2-4A–GFP: GFP-fused Caskin2 mutant with four amino acids (L1183, F1190, L1197, L1201) replaced by alanine
- talin binding [3]: failed to pull down endogenous talin

Compound: Caskin2-FL–GFP: full-length Caskin2 fused to GFP
- precipitation of 14-3-3 proteins [4]: precipitated with both Caskin2-FL–GFP and Caskin2-PRR^4A–GFP
- talin binding [5]: the interaction is independent of integrin β1
- precipitation of endogenous Abi1, Wasf1, Cyfip2 and Nckap1 [6]: precipitated endogenous Abi1, Wasf1, Cyfip2 and Nckap1
- HA–Abi1 binding [7]: efficiently pulled down
- colocalization with Abi1 [8]: colocalized with Abi1 at the cell periphery
- increase in cell motility compared to GFP-only expression [9]: ~45%

Compound: Caskin2-PRR^4A–GFP: Caskin2–GFP with PxPxxPxR mutated to AxAxxAxA
- precipitation of 14-3-3 proteins [4]: precipitated with both Caskin2-FL–GFP and Caskin2-PRR^4A–GFP
- precipitation of endogenous Abi1, Wasf1, Cyfip2 and Nckap1 [6]: none of these were precipitated
- HA–Abi1 binding [7]: neither of these constructs could precipitate co-expressed HA-tagged Abi1
- colocalization with Abi1 [8]: no such colocalization was observed
- cell motility [9]: migrated at a similar speed as GFP-only-expressing cells
- talin binding [3]: talin binding was unaffected

Compound: Caskin2-S877D–GFP: phosphomimetic mutant of Caskin2–GFP, S877 to aspartic acid
- HA–Abi1 binding [7]: no obvious difference in binding

Compound: Caskin2-S878D–GFP: phosphomimetic mutant of Caskin2–GFP, S878 to aspartic acid
- reduction of HA–Abi1 binding ([7]; co-IP, phosphomimetic mutant): ~80%

Compound: Caskin2-ΔLD–GFP: Caskin2 construct with the LD motif deleted (L1183–D1202 deleted) fused to GFP
- talin binding [5]: the LD motif is required for the interaction with talin
- cell motility [9]: no difference in motility between Caskin2-FL–GFP- and Caskin2-ΔLD–GFP- expressing cells

Compound: Caskin2-ΔPRR–GFP: Caskin2–GFP lacking amino acids 746–1035
- HA–Abi1 binding [7]: neither of these constructs could precipitate co-expressed HA-tagged Abi1
- colocalization with Abi1 [8]: no such colocalization was observed
- cell motility [9]: migrated at a similar speed as GFP-only-expressing cells
- talin binding [3]: talin binding was unaffected

Compound: EGF: growth factor (Sigma-Aldrich)
- Caskin2 phosphorylation on S878 after growth factor [1]: increase in Caskin2 phosphorylation on S878 within 5 min
- Caskin2–Abi1 binding after growth factor [2]: reduction in Caskin2–Abi1 binding

Compound: PDGF
- Caskin2 phosphorylation on S878 after growth factor [1]: increase in Caskin2 phosphorylation on S878 within 5 min
- Caskin2–Abi1 binding after growth factor [2]: reduction in Caskin2–Abi1 binding

Compound: Talin-R2E–GFP: talin mutant carrying two reverse charge mutations (R1523E and K1530E)
- Caskin2 binding to talin construct [10]: slightly increased binding

Compound: full-length exogenous talin: full-length exogenous talin, GFP-tagged
- Caskin2 binding to talin construct [10]: only limited binding
